Converted amounts (≈) assume the structure as drawn. Like-named read-outs stand apart in the source and are kept apart here.
Key:
[1] = Cytotoxicity, Neutral Red, BT-549; assay type: cell-based; conditions: human, BT-549 breast ductal carcinoma cells, Na = not active up to 50 µg/mL
Method: (§1) In vitro cytotoxic activity was determined against five human cancer cell lines—malignant melanoma (SK-MEL), epidermal carcinoma oral (KB), ductal carcinoma breast (BT-549), ovary carcinoma (SKOV-3) and cervical (HeLa) cancer cells—and two non-cancerous kidney cell lines (LLC-PK1 and Vero). All cell lines were obtained from the American Type Culture Collection (ATCC, Rockville, MD, USA). Each assay was performed in 96-well tissue culture-treated microplates. The cells were seeded at a density of 25,000 cells/well and incubated for 24 h. Samples at different concentrations were added, and the cells were incubated again for 48 h. At the end of the incubation, the cell viability was determined using Neutral Red dye according to a modification of the procedure used by Borenfreund et al.. IC50 values were determined from dose–response curves of the percent growth inhibition against test concentrations. Doxorubicin was used as a positive control, while DMSO was used as the negative (vehicle) control.

δ opioid receptor = target: T1, δ opioid receptor (Homo sapiens, UniProt P41143); assay: Competitive radioligand binding assay, δ opioid; conditions: for inhibition at 10 µM: [3H]-enkephalin (DPDPE), read-out: Percent displacement, Δ
T1 construct: host or cells: HEK293, stably transfected; membranes
T1 sequence (P41143 whole entry): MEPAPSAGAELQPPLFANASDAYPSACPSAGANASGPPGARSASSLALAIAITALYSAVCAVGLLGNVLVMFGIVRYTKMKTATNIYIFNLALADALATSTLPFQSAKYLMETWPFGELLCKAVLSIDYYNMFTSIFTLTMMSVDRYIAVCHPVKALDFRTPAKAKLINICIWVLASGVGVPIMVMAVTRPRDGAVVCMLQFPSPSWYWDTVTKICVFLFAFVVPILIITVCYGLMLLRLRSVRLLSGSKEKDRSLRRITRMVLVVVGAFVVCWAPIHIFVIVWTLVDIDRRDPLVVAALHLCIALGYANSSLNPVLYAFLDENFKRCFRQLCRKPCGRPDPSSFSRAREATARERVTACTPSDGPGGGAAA
Method: (§2) HEK293 cells stably transfected with δ, κ and μ opioid subtypes were a generous gift from Roth Laboratories (University of North Carolina at Chapel Hill, N.C., USA). CB and opioid cells were maintained as previously described.
(§3) Membranes were purified by first washing the cells with cold PBS and scraping the cells into cold 50 mM Tris-HCl, pH 7.4 buffer, which was centrifuged at 5200× g for 10 min at 4 °C; next, the supernatant was discarded, and the pellet was washed with more Tris-HCl buffer, homogenized via a Sonic Dismembrator (Fisher Scientific, Pittsburgh, PA, USA) and then centrifuged at 24,000× g for 40 min at 4 °C. Finally, the pellet was re-suspended in cold 50 mM Tris-HCl buffer, aliquoted into 2 mL vials and stored at −80 °C. The total membrane protein concentration was measured using a Pierce BCA Protein Assay Kit (Thermo Scientific, Rockford, IL, USA) as per the manufacturer’s protocol.
(§4) Cannabinoid and opioid competitive radioligand binding assays were performed as previously described. Saturation experiments were performed for all the receptors to determine the receptor concentration and radioligand dissociation constant (Kd) for the membrane. Percent displacements were evaluated for all the cannabinoid and opioid subtypes with a triplicate of a fixed concentration (10 µg/mL for extracts and fractions and 10 μM for purified compounds). […] Control/test compounds were dissolved in DMSO at 10 μg/mL for extracts and fractions and 10 μM for purified compounds. […] The percent displacement was calculated to represent the ability of the samples to displace the radioligand binding for a given cannabinoid or opioid receptor subtype.
(§5) The percent displacement was calculated as follows: 100−binding of compound−nonspecific binding/specific binding×100
(§6) The competitive binding assays were performed using 12 serial dilutions of each compound ranging from 0.002 to 300 μM (control compounds were serially diluted from 10 μM to 0.06 nM). The cannabinoid assays were incubated for 90 min at 37 °C with gentle agitation. The opioid assays were incubated for 60 min at room temperature. Bound radioligands were collected on GF/C (cannabinoid) or GF/B plates (opioid) and washed 10 times with ice-cold 50 mM Tris-HCl (pH 7.4)/0.1% BSA (cannabinoid) or ice-cold 50 mM Tris-HCl (pH 7.4) (opioid). Radiodetection was measured with 50 µL (cannabinoid) or 25 µL (opioid) of MicroScint^TM-20 on a TopCount NXT HTS Microplate Scintillation Counter (PerkinElmer, Waltham, MA, USA). The IC50 and Ki values were calculated via a non-linear curve fit model using GraphPad Prism 5.0 software (GraphPad Software, Inc., San Diego, CA, USA). Each compound was tested in triplicate unless stated otherwise.

[2] = Solubility in aqueous assay buffer; conditions: aqueous buffer of the radioligand binding assay
Myc = assay: Luciferase reporter assay, Myc, HeLa; assay type: cell-based; conditions: Homo sapiens; for IC50: HeLa cells, inducer PMA, dash: not inhibited by more than 40% at 50 µmol/L
Method: (§7) Hela cells (or T98G cells) from ATCC were plated in white opaque 384-well plates at a density of 4300 cells/well in 30 µL of growth medium (DMEM with 10% FBS and 1% Pen/Strep). The next day, the medium was aspirated and replaced with DMEM containing 1% FBS. The cells were transfected with respective plasmids using X-tremeGENE HP DNA transfection reagent (Roche). After 24 h of transfection, the test agents were added to the transfected cells, followed 30 min later by an inducing agent: interleukin 6 (IL-6) for Stat3, TGF-β for Smad, m-wnt3a for Wnt and PMA for AP-1, NF-κB, E2F, Myc, ETS, Notch and Hedgehog. No inducer was added for FoXO and pTK. After 4 h or 6 h of induction, the cells were lysed via the addition of the One-Glo luciferase assay system (Promega; Madison, WI). The light output was detected in a GloMax®-Multi+ Detection System with Instinct® Software (Promega E 8051). This luciferase assay determines if the test agent is able to inhibit the activation of cancer-related signaling pathways. In the case of FoxO, the enhanced luciferase activity via the test agent was assessed.

Hedgehog = assay: Luciferase reporter assay, Hedgehog, HeLa; assay type: cell-based, human
Method: as §7

[3] = Cytotoxicity, Neutral Red, SK-MEL; assay type: cell-based; conditions: human, SK-MEL malignant melanoma cells, Na = not active up to 50 µg/mL
Method: as §1

Wnt = assay: Luciferase reporter assay, Wnt, HeLa; assay type: cell-based; conditions: Homo sapiens; for IC50: HeLa cells, inducer m-wnt3a, dash: not inhibited by more than 40% at 50 µmol/L
Method: as §7

Notch = assay: Luciferase reporter assay, Notch, HeLa; assay type: cell-based; conditions: Homo sapiens; for IC50: HeLa cells, inducer PMA, dash: not inhibited by more than 40% at 50 µmol/L
Method: as §7

[4] = Cytotoxicity, Neutral Red, KB; assay type: cell-based; conditions: human, KB epidermal carcinoma (oral) cells, Na = not active up to 50 µg/mL
Method: as §1

CB2 receptor = target: T2, CB2 receptor (Homo sapiens, UniProt P34972); assay: Competitive radioligand binding assay, CB2; conditions: for Percent displacement, CB2: 10 μM, [3H]-CP55,940
T2 construct: expressed in transfected cells; host or cells: HEK293 (ATCC), stably transfected; membranes
T2 sequence (P34972 whole entry): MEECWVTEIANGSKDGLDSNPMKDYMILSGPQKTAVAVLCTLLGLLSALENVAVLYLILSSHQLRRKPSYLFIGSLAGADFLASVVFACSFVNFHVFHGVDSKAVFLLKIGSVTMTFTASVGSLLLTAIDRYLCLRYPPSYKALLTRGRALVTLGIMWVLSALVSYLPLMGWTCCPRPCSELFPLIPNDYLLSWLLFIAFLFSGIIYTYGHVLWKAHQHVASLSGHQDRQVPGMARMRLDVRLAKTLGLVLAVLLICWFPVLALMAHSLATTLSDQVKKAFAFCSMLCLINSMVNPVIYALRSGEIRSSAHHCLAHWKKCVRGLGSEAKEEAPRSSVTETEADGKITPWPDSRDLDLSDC
Method: as §2, §3, §4, §5, §6

[5] = Cytotoxicity, Neutral Red, SK-OV-3; assay type: cell-based; conditions: human, SK-OV-3 ovary carcinoma cells, Na = not active up to 50 µg/mL
Method: as §1

[6] = Homo sapiens, HeLa cells, inducer PMA, dash: not inhibited by more than 40% at 50 µmol/L

`C=C(C)[C@H]1CC[C@H](C)C[C@@H]1c1c(O)cc(/C=C/c2ccccc2O)cc1O` [compound 6, machaeridiol B] gave an IC50 at 48 h [1] of 36 µg/mL (≈ 98.8 µM), an inhibition at 10 µM (δ opioid receptor) of 50.2% and a Ki (δ opioid receptor; NA = not active, read-out: Δ Ki ± SEM) of 6.54 ± 0.77 µM. The Ki (δ opioid receptor; read-out: Δ pKi (converted)) was 6.46 µM, the solubility [2] was under 33.3 µM and the inhibition at 2 µM (Myc; HeLa, 6 alone at 2 µM, compared to pTK as control, read-out: Additive effect (in % inhibition): percentage of luciferase induction, Myc (PMA)) was 111%. For the same molecule, the IC50 (Myc) was 5.3 µM, the “IC50, Hedgehog (PMA)” value (Hedgehog; HeLa cells, inducer PMA, dash: not inhibited by more than 40% at 50 µmol/L) was “inactive” and the inhibition at 2 µM (Hedgehog; Homo sapiens, HeLa, 6 alone at 2 µM, compared to pTK as control, read-out: Additive effect (in % inhibition): percentage of luciferase induction, Hedgehog (PMA)) was 92%. For the same molecule, the IC50 (Hedgehog; [6]) was over 50 µM, the IC50 at 48 h [3] was 32 µg/mL (≈ 87.8 µM) and the inhibition at 2 µM (Wnt; HeLa, 6 alone at 2 µM, compared to pTK as control, read-out: Additive effect (in % inhibition): percentage of luciferase induction, Wnt (m-wnt3a)) was 113%. For the same molecule, the IC50 (Wnt) was 4.2 µM, the inhibition at 2 µM (Notch; HeLa, 6 alone at 2 µM, compared to pTK as control, read-out: Additive effect (in % inhibition): percentage of luciferase induction, Notch- (PMA)) was 103% and the IC50 (Notch) was 5.3 µM. For the same molecule, the IC50 at 48 h [4] was 38 µg/mL (≈ 104 µM), the “Percent displacement, CB2” value (CB2 receptor) was 56.8% and the Ki (CB2 receptor; * tested up to solubility limit, conc. at 33.3 μM and above precipitated, read-out: CB2 Ki ± SEM) was over 2.18 µM. It also gave an IC50 at 48 h [5] of over 50 µg/mL.

Work on `C[C@H]1CC[C@H]2[C@H](C1)c1c(O)cc(/C=C/c3ccccc3O)cc1OC2(C)C` [compound 3, machaeriol C] yielded an IC50 at 48 h [1] of over 50 µg/mL, an inhibition at 10 µM (δ opioid receptor) of 4.6% and a Ki (δ opioid receptor; Δ Ki ± SEM, NA = not active) of 17.1 ± 2.61 µM. The solubility [2] was under 33.3 µM, the inhibition at 10 µM (Myc; HeLa, 3 alone at 10 µM, compared to pTK as control, read-out: Additive effect (in % inhibition): percentage of luciferase induction, Myc (PMA)) was 52% and the IC50 (Myc) was 10 µM. The inhibition at 10 µM (Hedgehog; Homo sapiens, HeLa, 3 alone at 10 µM, compared to pTK as control, read-out: Additive effect (in % inhibition): percentage of luciferase induction, Hedgehog (PMA)) was 66%, the IC50 (Hedgehog; [6]) was 10 µM and the IC50 at 48 h [3] was 25 µg/mL (≈ 68.6 µM). It also gave an inhibition at 10 µM (Wnt; HeLa, 3 alone at 10 µM, compared to pTK as control, read-out: Additive effect (in % inhibition): percentage of luciferase induction, Wnt (m-wnt3a)) of 81%, an IC50 (Wnt) of 22 µM and an inhibition at 10 µM (Notch; HeLa, 3 alone at 10 µM, compared to pTK as control, read-out: Additive effect (in % inhibition): percentage of luciferase induction, Notch- (PMA)) of 115%. The IC50 (Notch) was over 50 µM, the IC50 at 48 h [4] was over 50 µg/mL and the Ki (CB2 receptor) was over 7.76 µM. For the same molecule, the “Percent displacement, CB2” value (CB2 receptor) was 55.5% and the IC50 at 48 h [5] was over 50 µg/mL.
